Measurements taken from patent US20070010537A1, “Fused pyramidine derivative and use thereof” (priority 2004, published 2007).
Structures can show the parent of a compound that is named as a salt.

Target: T1, human GnRH receptor (Homo sapiens, UniProt P30968)
T1 construct: expressed in transfected cells; host or cells: CHO (Chinese Hamster Ovary) cells
T1 sequence (P30968 1-328): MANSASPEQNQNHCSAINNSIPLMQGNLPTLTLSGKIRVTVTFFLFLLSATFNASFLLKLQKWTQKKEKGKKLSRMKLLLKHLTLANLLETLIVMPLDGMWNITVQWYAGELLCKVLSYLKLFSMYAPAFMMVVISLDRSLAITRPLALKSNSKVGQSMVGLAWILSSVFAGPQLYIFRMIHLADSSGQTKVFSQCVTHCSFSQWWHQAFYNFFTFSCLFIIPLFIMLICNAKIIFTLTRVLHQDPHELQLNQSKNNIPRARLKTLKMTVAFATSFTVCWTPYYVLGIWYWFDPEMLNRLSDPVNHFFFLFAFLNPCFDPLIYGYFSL
Test: 125I-leuprorelin binding assay, human GnRH receptor CHO cell membrane fraction
Conditions: 10 nM of the testing compound, room temperature for 1 hour, read-out: Binding inhibitory ratio (%)
Experimental: (1) Production of ^125I-Leuprorelin
10 μL of a 3×10^−4 M aqueous solution of leuprorelin and 10 μL of 0.01 mg/mL lactoperoxidase were placed in a tube, and 10 μL (37 MBq) of a Na^125I solution was added thereto. After stirring, 10 μL of 0.001% H2O2 was added to allow the mixture to undergo a reaction at room temperature for 20 minutes. 700 μL of a 0.05% TFA solution was added to stop the reaction, and purification by reversed phase HPLC was carried out. The conditions for HPLC are described below. ^125I-leuprorelin was eluted at a retention time of 26 to 27 minutes.
(2) Production of CHO (Chinese Hamster Ovary) Cell Membrane Fraction Containing Human GnRH Receptor
Human GnRH receptor-expressing CHO cells were cultured until the cells were reached a 90% confluent state in a T-150 flask. The cells were separated using 0.02% EDTA-PBS and were centrifuged at 500×g for 5 minutes. A homogenate buffer for cells (10 mM NaHCO3, 1 mM EDTA, 1 mM PMSF, 0.5 μg/mL Pepstatin, 2 μg/mL Leupeptin, pH 7.4) was added to the cell pellet, and the mixture was homogenized with a Polytron homogenizer. After centrifugation of the homogenate at 4° C. and at 1000×g for 10 minutes, the supernatant was placed in an ultracentrifuge tube and was centrifuged at 4° C. and at 49,300×g for 1 hour to obtain a precipitate of a membrane fraction. This precipitate was suspended in an assay buffer (50 mM Tris-HCl, 150 mM NaCl, 5 mM EDTA, pH 7.4) and then dispensed and stored at −80° C., so that the suspension can be thawed every time it is taken for use.
(3) Measurement of the Binding Inhibitory Rate of 125I-Leuprorelin
A ^125I-leuprorelin binding assay was carried out using 200 μL of an assay buffer containing 10 μg of human GnRH receptor membrane fraction, […] of ^125I-leuprorelin and 10 nM of the testing compound.
The non-specific binding radioactivity was measured in the presence of 1 μM of non-labeled leuprorelin. After leaving the mixture to stand at room temperature for 1 hour, 125I-leuprorelin was captured on a GF/C filter (PerkinElmer, Inc.), and the filter was washed with ice-cold 50 mM Tris-HCl (pH 7.4) using a cell harvester. After drying the filter, a liquid scintillation cocktail for microplate was added, and the membrane-bound radioactivity was measured using a TopCount.
The value of (TB-SB)/(TB-NSB)×100 (SB: radioactivity upon addition of the compound, TB: maximum binding radioactivity, NSB: non-specific binding radioactivity) was calculated to determine the binding inhibitory rate in the presence of 10 nM of each testing material.

O=c1[nH]c2ccccc2c(=O)n1-c1cc(S(=O)(=O)N2CCCc3ccccc32)ccc1Cl [Example 6(4), 3-(2-Chloro-5-(3,4-dihydroquinolin-1(2H)-ylsulfonyl)phenyl)quinazoline-2,4(1H,3H)-dione]
inhibition at 0.01 µM: 88.5%

O=c1[nH]c2ccccc2c(=O)n1-c1cc(S(=O)(=O)N2CCCCc3ccccc32)ccc1Cl [Example 7(5), 3-(2-Chloro-5-(2,3,4,5-tetrahydro-1H-1-benzazepin-1-ylsulfonyl)phenyl)-2,4(1H,3H)-quinazolinedione]
inhibition at 0.01 µM: 95.6%

O=c1[nH]c2ccccc2c(=O)n1-c1cc(S(=O)(=O)N2CCCOc3ccccc32)ccc1Cl [Example 7(8), 3-(2-Chloro-5-(3,4-dihydro-1,5-benzoxazepin-5(2H)-ylsulfonyl)phenyl)-2,4(1H,3H)-quinazolinedione]
inhibition at 0.01 µM: 87.6%

O=c1[nH]c2ccccc2c(=O)n1-c1cc(S(=O)(=O)N2CCCc3ccccc32)ccc1F [Example 7(22), 3-[5-(3,4-Dihydroquinolin-1(2H)-ylsulfonyl)-2-fluorophenyl]quinazoline-2,4(1H,3H)-dione]
inhibition at 0.01 µM: 75.5%

O=c1[nH]c2ccccc2c(=O)n1-c1cc(S(=O)(=O)N2CCCCc3sccc32)ccc1Cl [Example 7(70), 3-[2-Chloro-5-(5,6,7,8-tetrahydro-4H-thieno[3,2-b]azepin-4-ylsulfonyl)phenyl]quinazoline-2,4(1H,3H)-dione]
inhibition at 0.01 µM: 94.5%

N=c1c2ccccc2[nH]c(=O)n1-c1cc(S(=O)(=O)N2CCCc3ccccc32)ccc1Cl [Example 8(1), 3-(2-Chloro-5-(3,4-dihydro-1(2H)-quinolinylsulfonyl)phenyl)-4-imino-3,4-dihydro-2(1H)-quinazoline trifluoroacetate]
inhibition at 0.01 µM: 91.7%

CN(c1ccccc1)S(=O)(=O)c1ccc(Cl)c(-n2c(=O)[nH]c3ccccc3c2=N)c1 [Example 8, 4-Chloro-3-(4-imino-2-oxo-1,4-dihydro-3(2H)-quinazolinyl)-N-methyl-N-phenylbenzenesulfonamide trifluoroacetate]
inhibition at 0.01 µM: 84.7%

CN(C(=O)c1ccc(Cl)c(-n2c(=O)[nH]c3ccccc3c2=O)c1)c1ccccc1 [Example 14, 4-Chloro-3-(2,4-dioxo-1,4-dihydroquinazolin-3(2H)-yl)-N-methyl-N-phenylbenzamide]
inhibition at 0.01 µM: 88.9%

CN(C(=O)c1cc(-n2c(=O)[nH]c3cccc(CO)c3c2=O)c(Cl)s1)c1ccccc1 [Example 21(12), 5-Chloro-4-[5-(hydroxymethyl)-2,4-dioxo-1,4-dihydroquinazolin-3(2H)-yl]-N-methyl-N-phenylthiophene-2-carboxamide]
inhibition at 0.01 µM: 84.2%

COC(=O)c1cccc2[nH]c(=O)n(-c3cc(S(=O)(=O)N4CCCc5ccccc54)ccc3Cl)c(=O)c12 [Example 30, Methyl 3-[2-chloro-5-(3,4-dihydroquinolin-1(2H)-ylsulfonyl)phenyl]-2,4-dioxo-1,2,3,4-tetrahydroquinazoline-5-carboxylate]
inhibition at 0.01 µM: 98%

O=C(O)c1cccc2[nH]c(=O)n(-c3cc(S(=O)(=O)N4CCCc5ccccc54)ccc3Cl)c(=O)c12 [Example 31, 3-[2-Chloro-5-(3,4-dihydroquinolin-1(2H)-ylsulfonyl)phenyl]-2,4-dioxo-1,2,3,4-tetrahydroquinazoline-5-carboxylic acid]
inhibition at 0.01 µM: 98.2%

O=c1[nH]c2cccc(CO)c2c(=O)n1-c1cc(S(=O)(=O)N2CCCc3ccccc32)ccc1Cl [Example 36, 3-[2-Chloro-5-(3,4-dihydroquinolin-1(2H)-ylsulfonyl)phenyl]-5-(hydroxymethyl)quinazoline-2,4(1H,3H)-dione]
inhibition at 0.01 µM: 96.7%

N#Cc1sc(S(=O)(=O)N2CCCCc3ccccc32)cc1-n1c(=O)[nH]c2ccccc2c1=O [Example 42, 3-(2,4-Dioxo-1,4-dihydroquinazolin-3(2H)-yl)-5-(2,3,4,5-tetrahydro-1H-1-benzazepin-1-ylsulfonyl)thiophene-2-carbonitrile]
inhibition at 0.01 µM: 77.4%

CN(C(=O)c1ccc(Cl)c(-n2c(=O)[nH]c3cccc(CO)c3c2=O)c1)c1ccccn1 [Example 46(1), 4-Chloro-3-[5-(hydroxymethyl)-2,4-dioxo-1,4-dihydroquinazolin-3(2H)-yl]-N-methyl-N-pyridin-2-ylbenzamide]
inhibition at 0.01 µM: 98.2%

O=c1[nH]c2cccc(CO)c2c(=O)n1-c1cc(S(=O)(=O)N2CCCCc3ccccc32)sc1Cl [Example 47, 3-[2-Chloro-5-(2,3,4,5-tetrahydro-1H-1-benzazepin-1-ylsulfonyl)-3-thienyl]-5-(hydroxymethyl)quinazoline-2,4(1H,3H)-dione]
inhibition at 0.01 µM: 94.8%

CN(C(=O)c1cc(-n2c(=O)[nH]c3cccc(CO)c3c2=O)c(Cl)s1)c1ccccc1Cl [Example 73(1), 5-Chloro-N-(2-chlorophenyl)-4-[5-(hydroxymethyl)-2,4-dioxo-1,4-dihydroquinazolin-3(2H)-yl]-N-methylthiophene-2-carboxamide]
inhibition at 0.01 µM: 91.5%

CN(C(=O)c1cc(-n2c(=O)[nH]c3cccc(CO)c3c2=O)c(Cl)s1)c1cccc(Cl)c1 [Example 73(2), 5-Chloro-N-(3-chlorophenyl)-4-[5-(hydroxymethyl)-2,4-dioxo-1,4-dihydroquinazolin-3(2H)-yl]-N-methylthiophene-2-carboxamide]
inhibition at 0.01 µM: 93.8%

Cc1ccccc1N(C)C(=O)c1cc(-n2c(=O)[nH]c3cccc(CO)c3c2=O)c(Cl)s1 [Example 73(4), 5-Chloro-4-[5-(hydroxymethyl)-2,4-dioxo-1,4-dihydroquinazolin-3(2H)-yl]-N-methyl-N-(2-methylphenyl)thiophene-2-carboxamide]
inhibition at 0.01 µM: 82.2%

Cc1cccc(N(C)C(=O)c2cc(-n3c(=O)[nH]c4cccc(CO)c4c3=O)c(Cl)s2)c1 [Example 73(5), 5-Chloro-4-[5-(hydroxymethyl)-2,4-dioxo-1,4-dihydroquinazolin-3(2H)-yl]-N-methyl-N-(3-methylphenyl)thiophene-2-carboxamide]
inhibition at 0.01 µM: 95.6%

CN(C(=O)c1cc(-n2c(=O)[nH]c3cccc(CO)c3c2=O)c(Cl)s1)C1CCCCC1 [Example 73, 5-Chloro-N-cyclohexyl-4-[5-(hydroxymethyl)-2,4-dioxo-1,4-dihydroquinazolin-3(2H)-yl]-N-methylthiophene-2-carboxamide]
inhibition at 0.01 µM: 79%

NC(=O)c1cccc2[nH]c(=O)n(-c3cc(S(=O)(=O)N4CCCc5ccccc54)ccc3Cl)c(=O)c12 [Example 85, 3-[2-Chloro-5-(3,4-dihydroquinolin-1(2H)-ylsulfonyl)phenyl]-2,4-dioxo-1,2,3,4-tetrahydroquinazoline-5-carboxamide]
inhibition at 0.01 µM: 94%

CC(C)CN(C)C(=O)c1cc(-n2c(=O)[nH]c3cccc(CO)c3c2=O)c(Cl)s1 [Example 89, 5-Chloro-4-[5-(hydroxymethyl)-2,4-dioxo-1,4-dihydroquinazolin-3(2H)-yl]-N-isobutyl-N-methylthiophene-2-carboxamide]
inhibition at 0.01 µM: 76.2%

CC(C)(O)c1cccc2[nH]c(=O)n(-c3cc(S(=O)(=O)N4CCCc5ccccc54)ccc3Cl)c(=O)c12 [Example 100(1), 3-[2-Chloro-5-(3,4-dihydroquinolin-1(2H)-ylsulfonyl)phenyl]-5-(1-hydroxy-1-methylethyl)quinazoline-2,4(1H,3H)-dione]
inhibition at 0.01 µM: 99.9%
